Measurements reported in PMC6171417, “Carbonic anhydrase inhibition with a series of novel benzenesulfonamide-triazole conjugates” (Journal of Enzyme Inhibition and Medicinal Chemistry, 2018).

Columns and labels:
Assay in all cases: cells
Parameters in all cases: species or system NCI human tumour cell line panel
[1] = system: HOP-62; details: Homo sapiens, HOP-62; growth inhibition (GI%), single dose
[2] = system: HCT-116; details: Homo sapiens, HCT-116; growth inhibition (GI%), single dose
[3] = system: HOP-92; details: Homo sapiens, HOP-92; growth inhibition (GI%), single dose
[4] = system: BT-549; details: Homo sapiens, BT-549; growth inhibition (GI%), single dose
[5] = system: SN12C; details: Homo sapiens, SN12C; growth inhibition (GI%), single dose
[6] = system: UACC-257; details: Homo sapiens, UACC-257; growth inhibition (GI%), single dose
[7] = system: EKVX; details: Homo sapiens, EKVX; growth inhibition (GI%), single dose
[8] = system: SF-295; details: Homo sapiens, SF-295; growth inhibition (GI%), single dose
[9] = system: TK-10; details: Homo sapiens, TK-10; growth inhibition (GI%), single dose
[10] = system: A549/ATCC; details: Homo sapiens, A549; growth inhibition (GI%), single dose
[11] = system: SF-268; details: Homo sapiens, SF-268; growth inhibition (GI%), single dose
[12] = system: SF-539; details: Homo sapiens, SF-539; growth inhibition (GI%), single dose
[13] = system: SR; details: Homo sapiens, SR; growth inhibition (GI%), single dose
[14] = system: M14; details: Homo sapiens, M14; growth inhibition (GI%), single dose
[15] = system: PC-3; details: Homo sapiens, PC-3; growth inhibition (GI%), single dose
[16] = system: SK-OV-3; details: Homo sapiens, SK-OV-3; growth inhibition (GI%), single dose
[17] = system: SNB-75; details: Homo sapiens, SNB-75; growth inhibition (GI%), single dose
[18] = system: 786-0; details: Homo sapiens, 786-0; growth inhibition (GI%), single dose
[19] = system: NCI-H322M; details: Homo sapiens, NCI-H322M; growth inhibition (GI%), single dose
[20] = system: RPMI-8226; details: Homo sapiens, RPMI-8226; growth inhibition (GI%), single dose
[21] = system: CCRF-CEM; details: Homo sapiens, CCRF-CEM; growth inhibition (GI%), single dose
[22] = system: UO-31; details: Homo sapiens, UO-31; growth inhibition (GI%), single dose
[23] = system: KM12; details: Homo sapiens, KM12; growth inhibition (GI%), single dose
[24] = system: HS 578T; details: Homo sapiens, Hs-578T; growth inhibition (GI%), single dose
[25] = system: A498; details: Homo sapiens, A498; growth inhibition (GI%), single dose
[26] = system: LOX IMVI; details: Homo sapiens, LOX IMVI; growth inhibition (GI%), single dose
[27] = system: U251; details: Homo sapiens, U-251; growth inhibition (GI%), single dose
[28] = system: T-47D; details: Homo sapiens, T47D; growth inhibition (GI%), single dose
[29] = system: MCF7; details: Homo sapiens, MCF7; growth inhibition (GI%), single dose
[30] = system: HL-60(TB); details: Homo sapiens, HL-60; growth inhibition (GI%), single dose

Question: What does the source list for `N#Cc1nnn(-c2ccc(S(N)(=O)=O)cc2)c1NC(=O)CCl` [compound 5, 5]?
Answer: inhibition at 10 µM [1]: 7.9%; inhibition at 10 µM [2]: 5.4%; inhibition at 10 µM [3]: 3.9%; inhibition at 10 µM [4]: 3.1%; inhibition at 10 µM [5]: 11.8%; inhibition at 10 µM [6]: 11.1%; inhibition at 10 µM [7]: 8.6%; inhibition at 10 µM [8]: 1.8%; inhibition at 10 µM [9]: 3.6%; inhibition at 10 µM [10]: 7.2%; inhibition at 10 µM [11]: 2.5%; inhibition at 10 µM [12]: 1.3%; inhibition at 10 µM [13]: 4.1%; inhibition at 10 µM [14]: 4.7%; inhibition at 10 µM [15]: 10.3%; inhibition at 10 µM [16]: 3.5%; inhibition at 10 µM [17]: 14.5%; inhibition at 10 µM [18]: 2.1%; inhibition at 10 µM [19]: 6.6%; inhibition at 10 µM [20]: 8.7%; inhibition at 10 µM [21]: 11.3%; inhibition at 10 µM [22]: 13.5%; inhibition at 10 µM [23]: 5.2%; inhibition at 10 µM [24]: 99.8%; inhibition at 10 µM [25]: 8.6%; inhibition at 10 µM [26]: 5.5%; inhibition at 10 µM [27]: 7.7%; inhibition at 10 µM [28]: 4.8%; inhibition at 10 µM [29]: 9.1%; inhibition at 10 µM [30]: 22.5%
